# According to patent publication US20110112308A1 (NOVARTIS AG, priority 2006, published 2011):
# Columns and labels:
# Format in all cases: physicochemical
# [1] = Solubility, 24-hour equilibration at room temperature; details: organic solvent or mixture, thermodynamic from solid
# Description: Aqueous Solubility: A carefully weighted amount (20-50 mg) of sample is dissolved in 1 ml of solvent with 24-hour equilibration at room temperature. The solubility was determined either gravimetrically or by UV-VIS spectrometry. The pH of the clear solution was also measured. However, the difficulty of determining salt solubilities in water should be stressed, since upon dissolution dissociation to the free form is possible, which affects both the solubility and the pH. It's not unlikely that attempts to make solutions of a salt at a concentration well below the reported solubility of the salt to be unsuccessful (for a full discussion see: M. Pudipeddi, A. T. M. Serajuddin, D. J. W. Grant, and P. H. Stahl in “Handbook of Pharmaceutical Salts Properties Selection and Use” page 27 and references therein).
# [2] = pH of saturated solution or 1% suspension in water; details: room temperature
# Description: pH Value: The pH at room temperature of a saturated solution or 1% suspension of the drug substance in water was recorded.
# [3] = Intrinsic dissolution rate, rotation disk method; details: Water, 37° C., 200 r.p.m.; free base pellet disintegrated, not true intrinsic rate
# Description: Intrinsic Dissolution: […] […] Pellets of the other salts remained intact for at least several minutes enabling the determination of the intrinsic dissolution rate. Dissolution rate studies were performed using the rotation disk method ([…] Instrument). A single rotation speed of 200 r.p.m. was used to dissolve drug substance into a 500 mL vessel at 37° C. The solution was continuously pumped through a UV cell measurement and returned to the dissolution vessel.
# [4] = Solution stability (HPLC)
# Description: (§1) All samples were prepared/diluted to a concentration of 0.2 mg/mL in methanol prior to analysis by HPLC. A freshly prepared sample of each salt was used as the reference standard for external standard calibration analysis.
# [5] = Solid-state stability; details: for Bulk stability (XRPD): 1 week
# Description: as §1
# [6] = Stability of mixtures with excipients
# Description: as §1
# [7] = pH of saturated solution or 1% suspension in water; details: In pH = 6.8 buffer
# [8] = 2 mg/mL in water, 1 week at 50° C.
# [9] = 5% solution, 1 day at RT (diluted 1:100 in pH 6.8 buffer)
# [10] = Light study, 1200 kLux (300-800 nm)
structure (smiles),measurement,setting,value
"Cc1[nH]c2ccccc2c1CCNCc1ccc(/C=C/C(=O)NO)cc1 [Free base, N-hydroxy-3-[4-[[[2-(2-methyl-1H-indol-3-yl)ethyl]amino]methyl]phenyl]-2E-2-propenamide]",solubility at 24 h,"[1]; ethyl acetate, 25 °C",5600 µg/mL
same,solubility at 24 h,"[1]; Acetone, approx. at 25° C.",6500 µg/mL
same,solubility at 24 h,"[1]; Ethanol, approx. at 25° C.",1500 µg/mL
same,solubility at 24 h,"[1]; Methanol, approx. at 25° C.",2300 µg/mL
same,pH of saturated solution,[2],8.7
same,Intrinsic Dissolution Rate,[3],0.15 mg min^−1 cm^−2
same,pH of initial mixture,"[4]; 2 mg/mL in 100 mM lactate buffer, pH 3.5",3.60
same,assay,"[4]; 2 mg/mL in methanol, 1 week at 50° C.",[100.2]
same,pH of initial mixture,[4]; 2 mg/mL in water,9.59
same,CL (appearance),[4]; [8],A↓
same,assay,[4]; [8],[98.73]
same,assay,"[4]; 2 mg/mL, 100 mM lactate buffer pH 3.5, 1 week at 50° C., external standard",[97.21]
same,assay,"[4]; 2% in 0.5% CMC, 1 day at RT",[98.07]
same,assay,"[4]; 2% in 0.5% HPMC 4000, 1 day at RT",[100.4]
same,assay,"[4]; 2% in 0.5% Klucel HF, 1 day at RT",[99.28]
same,assay,"[4]; 2% in 0.8% Tween 80, 1 day at RT",[98.91]
same,CL (appearance),[4]; [9],A↓
same,assay,[4]; [9],[100.4]
same,"stability characteristics, in words",[4]; both in solution and in the solid state,very good stability
same,Unstressed (% Area),[4]; unstressed baseline of the stability study,99.41% Area
same,Bulk stability (XRPD),[5]; 80° C.,Changed to mod. C
same,Bulk stability (XRPD),[5]; 80° C./75% r.h.,no change
same,assay,"[5]; Bulk stability, 2 weeks, 50° C.",[97.76]
same,assay,"[5]; Bulk stability, 2 weeks, 50° C./20% water",[99.48]
same,assay,"[5]; Bulk stability, 2 weeks, 50° C./75% r.h.",[98.61]
same,CL (appearance),[5]; [10],B (B = slight discoloration)
same,assay,[5]; [10],[99.39]
same,% DS (drug substance),"[6]; Mixture 1: 50% PVP + 50% Crospovidone, 50° C./75% r.h., 2 weeks",98.8 % area
same,% DS (drug substance),"[6]; Mixture 2: 50% Starch 1500 + 5% MCC 102, 50° C./75% r.h., 2 weeks",99.4 % area
same,% DS (drug substance),"[6]; Mixture 3: 5% PVP + 5% Crospovidone + 10% Starch 1500 + 80% MCC 102, 50° C./75% r.h., 2 weeks",99.3 % area
same,% DS (drug substance),"[6]; Mixture 4: 99% Lactose + 1% BHT/BHA, 50° C./75% r.h., 2 weeks",99.4 % area
same,% DS (drug substance),"[6]; Mixture 5: 99% Mannitol + 1% BHT/BHA, 50° C./75% r.h., 2 weeks",99.2 % area
same,% DS (drug substance),"[6]; Mixture 6: 50% Mannitol + 47% HPCLH21 + 1% BHT/BHA + 2% Magnesium Stearate, 50° C./75% r.h., 2 weeks",99.4 % area
same,% DS (drug substance),"[6]; Mixture 7: 50% Cetyl Alcohol + 49% HPCLH21 + 1% Magnesium Stearate, 50° C./75% r.h., 2 weeks",99.5 % area
same,% DS (drug substance),"[6]; Mixture 8: 100% PEG 3350, 50° C./75% r.h., 2 weeks",98.6 % area
same,% DS (drug substance),"[6]; Standard, freshly prepared",99.5 % area
same,"stability with all excipient mixtures tested, in words",[6]; after 2 weeks at 50° C./75% r.h.,very good stability
same,pH of saturated solution,[7],6.91
